Legend:
[1] = Mineral oil removal from aluminum coupon, sonication in solvent; conditions: sonicated 1 minute
Description: In the following Examples and Comparative Examples, the cleaning ability of the alkoxy-substituted perfluorocompounds used in the cleaning process of the invention was further evaluated. A 1.28 cm×1.28 cm×0.225 cm wire-wrapped, aluminum coupon was coated with white heavy mineral oil (available from Aldrich Chemical) by immersing the coupon in an oil-filled beaker. The initial amount of the oil on the coupon was determined by weighing it on an analytical balance to the nearest 0.1 mg. The coupon was immersed in a container of solvent and sonicated for 1 minute at the indicated temperature (see Table 3 below for the solvents and temperatures used). The coupon was then weighed again, and the results were recorded in Table 3 as percent oil removal.

[2] = Pump oil removal with boiling mixed terpenes/perfluorocompound mixture; conditions: boiling mixture 40 volume % mixed terpenes, 60 volume % fluorinated component
Description: The above-described test coupon was dipped into DuoSeal Pump Oil (available from Sargent-Welch), was immersed in a boiling mixture of 40 volume % of a solvating agent comprising mixed terpenes having a boiling range of 243-274° C. and 60 volume % of alkoxy-substituted perfluorocompound (a cleaning composition of the invention), was cooled for 60 seconds, and was then immersed in mixture vapor for 30 seconds. The percent oil removal was determined in the above-described manner.

[3] = Rinse agent in co-solvent cleaning of solder flux; conditions: solvating agent 1 minute at about 55° C., then 30 seconds in boiling solvent
Description: The ability of alkoxy-substituted perfluorocompounds to function as a rinse agent in a co-solvent cleaning process was evaluated. The above-described aluminum coupon was coated with solder flux (available from Alpha Metals as Alpha 611 rosin, mildly activated flux) by immersing the coupon into a flux-filled beaker. The flux-coated coupon was then dried using a forced air convection drier. The initial amount of the flux on the coupon was determined by weighing it on an analytical balance to the nearest 0.1 mg. The coupon was immersed in a container of a mixed solvating agent comprising approximately 50% methyl decanoate and 50% dipropylene glycol di-n-butyl ether and was sonicated for 1 minute at approximately 55° C. The coupon was then immersed for 30 seconds into alkoxy-substituted perfluorocompound which had been heated to its boiling point. The coupon was weighed again, and the results were recorded in Table 5 below as percent oil removed from the coupon.

[4] = Mineral oil removal with boiling methyl decanoate/perfluorocompound mixture; conditions: boiling mixture 40 volume % methyl decanoate, 60 volume % perfluorocompound
Description: The above-described test coupon was dipped in white heavy mineral oil (available from Aldrich Chemical), was immersed in a boiling single-phase mixture of 40 volume % of a solvating agent comprising essentially methyl decanoate and 60 volume % of alkoxy-substituted perfluorocompound (a cleaning composition of the invention) for 60 seconds, was cooled for 60 seconds, and was then immersed in mixture vapor for 30 seconds. The percent oil removal was determined in the above-described manner.

[5] = Pump oil removal with n-C6H14/perfluorocompound mixture at room temperature, ultrasonic; conditions: 40 volume % n-C6H14, 60 volume % fluorinated component, 60 seconds
Description: The above-described test coupon was dipped into DuoSeal Pump Oil (available from Sargent-Welch) and was then immersed in a mixture of 40 volume % n-C6H14 and 60 volume % alkoxy-substituted perfluorocompound (a cleaning composition of the invention) for 60 seconds at room temperature with ultrasonic agitation. The percent oil removal was determined in the above-described manner.

[6] = Fluorinated oil removal from aluminum coupon; conditions: Krytox 157FSM, room temperature
Description: Using essentially the same procedure as that described in Examples 8-10, the ability of the alkoxy-substituted perfluorocompounds to remove a fluorinated oil was evaluated. As in the previous Examples, a coupon was immersed in Krytox™ 157FSM perfluoropolyether oil having carboxylic acid end groups (available from DuPont), and the percent oil remaining after immersion in the solvent (at room temperature) was determined.

[7] = Ability to dissolve halogenated oils (miscibility); type: physicochemical; conditions: room temperature
Description: The ability of alkoxy-substituted perfluorocompounds to dissolve several halogenated oils was determined by adding a measured amount of oil to alkoxy-substituted perfluorocompound until the resulting mixture became turbid or phase-split. […] The results (shown in Table 12) indicate that alkoxy-substituted perfluorocompounds have very high ability to dissolve halogenated oils. Thus, the perfluorocompounds can be used as carrier solvents for halogenated oils in the deposition of coatings of such oils on substrate surfaces.

[8] = Flash point testing ASTM D3278-89; type: physicochemical
Description: The alkoxy-substituted perfluorocompounds C4F9OCH3, C4F9OC2H5, and c-C6F11OCH3 were tested for flash point by the standard method defined by ASTM D3278-89.

[9] = Pump oil removal in vapor of boiling n-C6H14/perfluorocompound mixture; conditions: vapor of boiling 40 volume % n-C6H14, 60 volume % fluorinated component; 60 seconds
Description: The above-described test coupon was dipped into DuoSeal Pump Oil (available from Sargent-Welch) and was then immersed in the vapor of a boiling mixture of 40 volume % n-C6H14 and 60 volume % alkoxy-substituted perfluorocompound (a cleaning composition of the invention), for 60 seconds. The percent oil removal was determined in the above-described manner.

[10] = Paraffinic oil removal: solvating agent, then rinse in boiling solvent; conditions: methyl caproate/dipropylene glycol di-n-butyl ether 30 seconds, boiling rinse 30 seconds
Description: The above-described test coupon was dipped into a paraffinic oil comprising a mixture of linear and branched hydrocarbons (DuoSeal Pump Oil, available from Sargent Welch), was immersed in mixed solvating agent comprising approximately 50% methyl caproate and 50% dipropylene glycol di-n-butyl ether for 30 seconds, and was then rinsed in boiling alkoxy-substituted perfluorocompound for 30 seconds. The percent oil removal was determined in the above-described manner.

[11] = Perfluoropolyether oil removal in solvent vapor; conditions: Brayco 815Z; vapor over boiling liquid, 60 seconds
Description: The above-described aluminum coupon was dipped into Brayco 815Z perfluoropolyether oil (available from Castrol Inc., molecular weight of about 10,000) and then immersed in alkoxy-substituted perfluorocompound vapor (over the boiling liquid) for 60 seconds. The percent oil removal was determined in the above-described manner.

[12] = Stability in the presence of base: aqueous NaOAc, fluoride ion measurement; type: physicochemical; conditions: 10 g with 10 g 0.1M NaOAc, 110° C., 16 hours
Description: To assess hydrolytic stability, a ten gram sample of alkoxy-substituted perfluorocompound was combined with 10 g of 0.1M NaOAc and sealed in a 2.54 cm (internal diameter) by 9.84 cm Monel™ 400 alloy (66% nickel, 31.5% copper, and 1.2% iron and several minor components) tube (available from Paar Instrument Co. of Moline, Ill. as Part Number 4713cm). The tube was heated at 110° C. in a forced air convection oven for 16 hours. After cooling to room temperature, a 1 mL sample of the tube contents was diluted with 1 mL of total ionic strength adjustment buffer (TISAB, available from Orion Research, Inc., a mixture of 1,2-cyclohexylene dinitrilotetraacetic acid, deionized water, sodium acetate, sodium chloride, and acetic acid). The concentration of fluoride ion (resulting from any reaction of the perfluorocompound with the aqueous NaOAc) was measured using an Orion Model 720A Coulombmeter with a F-specific electrode which had been previously calibrated using 0.5 and 500 ppm F^− solutions. Based on the measured fluoride ion concentration, the rate at which HF had been generated by reaction of the aqueous NaOAc with the perfluorocompound was calculated.

C4F9OC2H5 [Example C4F9OC2H5]
percent oil removal ([1]; 23 ° C.): 56.0% | percent oil removal ([1]; 50 ° C.): 99.2% | percent oil removal ([1]; 60 ° C.): 100.0% | Percent Soil Removed [2]: 99.4% | % Removed [3]: 100.0% | Percent Soil Removed [4]: 94.28% | Percent Soil Removed [5]: 99.0% | % Removed [6]: 99.3% | Miscibility with solute ([7]; Brayco 815Z Perfluoropolyether (MW about 10,000)): Miscible (greater than or equal to 50 percent by volume solubility at room temperature) | Miscibility with solute ([7]; Chlorotrifluoroethylene Fluid (Inland 41 Vacuum Pump Oil)): Miscible (greater than or equal to 50 percent by volume solubility at room temperature) | Miscibility with solute ([7]; Fomblin AM-2001 Functionalized Perfluoropolyether): Miscible (greater than or equal to 50 percent by volume solubility at room temperature) | Flash point [8]: no flash point | Percent Soil Removed [9]: 97.1% | Percent Soil Removed [10]: 100.0% | Percent Soil Removed [11]: 93.3% | HF Generation Rate [12]: 0.22 µg/g/h

Source: patent US20010044404A1, “Cleaning process and composition” (3M Innovative Properties Company, priority 1995, published 2001)
